Tests used:
Format in all cases: cell-based
AXL = AXL (Homo sapiens (Human), UniProt P30530); assay: AXL autophosphorylation ELISA in A-172 cells; details: cellular, Gas6-stimulated, phospho-AXL ELISA
Protocol: A-172 glioblastoma cells (ATCC #CRL-1620) were seeded at 2.5×10^5 cells/well onto 24-well plates (Greiner #662165), in […] (Thermo Fisher #11995-040) containing 10% FBS (Thermo Fisher #26140-079), […] (Thermo Fisher #11140-050), […] (Thermo Fisher #35050-061), and 1% Penicillin Streptomycin (Thermo Fisher #15140-122). A-172 cells were incubated at 37° C., […] for 24 hand then starved for 24 h in serum-free medium. Test compounds were serially diluted to produce an 8-point dose curve in fresh serum-free medium to a final concentration of 0.3% DMSO (vehicle) and added to the cells and incubated for 1 h. Cells were then stimulated with 1 μg/mL recombinant human Gas6 (R&D Systems #885-GSB-500) for 15 min, washed with cold PBS, and immediately lysed with 150 μL of cold 1× lysis buffer [20 mM Tris, 137 mM sodium chloride, 2 mM EDTA, 10% glycerol, 1% NP-40 alternative, 1 mM activated sodium orthovanadate, 1 mM PefaBloc SC (Sigma-Aldrich #11429868001), protease/phosphatase inhibitor tablet (Thermo Fisher #A32959)]. Lysates were collected and 100 μL/well added into the human phospho-AXL DuoSet IC ELISA (R&D Systems #DYC2228-2). Assay was performed according to manufacturer's instructions and sample phospho-AXL concentrations were extrapolated using human phospho-AXL control (R&D Systems #841645) as a standard. Positive control wells (100% activity) contained Gas6-stimulated, DMSO-treated cell lysates. Negative control wells (0% activity) contained Gas6-stimulated, reference inhibitor-treated cell lysates. IC50 values were calculated by nonlinear regression analysis using a 4-parameter logistic curve fit in ActivityBase XE (IDBS).

Met = Met (Homo sapiens (Human), UniProt P08581); assay: Met autophosphorylation ELISA in PC-3 cells; details: cellular, HGF-stimulated, phospho-Met ELISA, read-out: c-Met IC50
Protocol: PC-3 prostate cancer cells (ATCC #CRL-1435) were seeded at 4×10^4 cells/well onto 24-well plates (Greiner #662165), in DMEM (Thermo Fisher #11995-040) containing 10% FBS (Thermo Fisher #26140-079), 1% MEM NEAA (Thermo Fisher #11140-050), 1% GlutaMax (Thermo Fisher #35050-061), and 1% Penicillin Streptomycin (Thermo Fisher #15140-122). PC-3 cells were incubated at 37° C., 5% CO2 for 24 h and then starved for 3 h in serum-free medium. Test compounds were serially diluted to produce an 8-point dose curve in fresh serum-free medium to a final concentration of 0.3% DMSO (vehicle) and added to the cells and incubated for 1 h. Cells were then stimulated with 100 ng/mL recombinant human HGF (R&D Systems #294-HG-250) for 10 min, washed with cold PBS, and immediately lysed with 130 μL of cold 1× lysis buffer [20 mM Tris, 137 mM sodium chloride, 2 mM EDTA, 10% glycerol, 1% NP-40 alternative, 1 mM activated sodium orthovanadate, 1 mM PefaBloc SC (Sigma-Aldrich #11429868001), and protease/phosphatase inhibitor tablet (Thermo Fisher #A32959)]. Lysates were clarified by centrifugation and 100 μL/well added into the PathScan phospho-Met (panTyr) Sandwich ELISA (Cell Signaling Technology #7333). Assay was performed according to manufacturer's instructions. Positive control wells (100% activity) contained HGF-stimulated, DMSO-treated cell lysates. Negative control wells (0% activity) contained HGF-stimulated, reference inhibitor-treated cell lysates. IC50 values were calculated by nonlinear regression analysis using a 4-parameter logistic curve fit in ActivityBase XE (IDBS).

KDR = KDR (Homo sapiens (Human), UniProt P35968); assay: KDR autophosphorylation ELISA in HUVEC cells; details: cellular, VEGF165-stimulated, phospho-KDR ELISA
Protocol: Human umbilical vein endothelial cells or HUVEC (Lonza #C2519A) were seeded at 2×10^4 cells/well onto 96-well plates (Corning #3904), in EGM-2 growth medium (Lonza #CC-3162) containing 1% Penicillin Streptomycin (Thermo Fisher #15140-122). HUVEC cells were incubated at 37° C., 5% CO2 for 24 h and then starved for 24 h in serum-free EBM-2 basal medium (Lonza #CC-3156) containing 1% Penicillin Streptomycin. Test compounds were serially diluted to produce an 8-point dose curve in fresh serum-free medium to a final concentration of 0.3% DMSO (vehicle) and added to the cells and incubated for 1 h. Cells were then stimulated with 100 ng/mL recombinant human VEGF165 (R&D Systems #293-VE-500) for 5 min, washed with cold PBS, and immediately lysed with 130 μL of cold 1× lysis buffer [20 mM Tris, 137 mM sodium chloride, 2 mM EDTA, 10% glycerol, 1% NP-40 alternative, 1 mM activated sodium orthovanadate, 1 mM PefaBloc SC (Sigma-Aldrich #11429868001), protease/phosphatase inhibitor tablet (Thermo Fisher #A32959)]. Lysates were collected and 100 μL/well added into the human phospho-KDR DuoSet IC ELISA (R&D Systems #DYC1766-2). Assay was performed according to manufacturer's instructions and sample phospho-KDR concentrations were extrapolated using human phospho-KDR control (R&D Systems #841421) as a standard. Positive control wells (100% activity) contained VEGF165-stimulated, DMSO-treated cell lysates. Negative control wells (0% activity) contained non-stimulated cell lysates. IC50 values were calculated by nonlinear regression analysis using a 4-parameter logistic curve fit in ActivityBase XE (IDBS).

Sequence of AXL (P30530 26-894): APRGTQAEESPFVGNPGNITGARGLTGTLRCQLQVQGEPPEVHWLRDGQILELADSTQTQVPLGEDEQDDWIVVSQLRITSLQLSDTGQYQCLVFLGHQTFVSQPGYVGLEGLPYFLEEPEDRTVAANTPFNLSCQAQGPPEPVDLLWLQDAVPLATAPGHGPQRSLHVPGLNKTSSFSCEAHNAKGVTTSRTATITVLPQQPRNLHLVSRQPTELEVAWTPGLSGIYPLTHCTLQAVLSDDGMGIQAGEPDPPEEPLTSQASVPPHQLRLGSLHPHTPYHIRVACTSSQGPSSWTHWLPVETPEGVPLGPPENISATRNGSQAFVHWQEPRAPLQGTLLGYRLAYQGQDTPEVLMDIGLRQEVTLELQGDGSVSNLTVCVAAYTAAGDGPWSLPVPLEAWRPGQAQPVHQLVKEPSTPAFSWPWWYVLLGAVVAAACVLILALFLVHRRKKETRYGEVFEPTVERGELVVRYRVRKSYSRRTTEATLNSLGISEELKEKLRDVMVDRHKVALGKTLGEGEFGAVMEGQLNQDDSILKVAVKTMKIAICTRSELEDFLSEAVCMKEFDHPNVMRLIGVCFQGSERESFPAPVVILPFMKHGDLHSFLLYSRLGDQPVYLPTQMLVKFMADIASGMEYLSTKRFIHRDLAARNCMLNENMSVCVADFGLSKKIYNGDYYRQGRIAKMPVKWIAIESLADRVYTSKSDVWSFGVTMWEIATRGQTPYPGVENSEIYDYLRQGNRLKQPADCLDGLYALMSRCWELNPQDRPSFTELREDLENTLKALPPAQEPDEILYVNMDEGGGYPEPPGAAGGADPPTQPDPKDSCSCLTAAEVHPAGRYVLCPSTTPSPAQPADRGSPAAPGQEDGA
Sequence of Met (P08581 25-1390): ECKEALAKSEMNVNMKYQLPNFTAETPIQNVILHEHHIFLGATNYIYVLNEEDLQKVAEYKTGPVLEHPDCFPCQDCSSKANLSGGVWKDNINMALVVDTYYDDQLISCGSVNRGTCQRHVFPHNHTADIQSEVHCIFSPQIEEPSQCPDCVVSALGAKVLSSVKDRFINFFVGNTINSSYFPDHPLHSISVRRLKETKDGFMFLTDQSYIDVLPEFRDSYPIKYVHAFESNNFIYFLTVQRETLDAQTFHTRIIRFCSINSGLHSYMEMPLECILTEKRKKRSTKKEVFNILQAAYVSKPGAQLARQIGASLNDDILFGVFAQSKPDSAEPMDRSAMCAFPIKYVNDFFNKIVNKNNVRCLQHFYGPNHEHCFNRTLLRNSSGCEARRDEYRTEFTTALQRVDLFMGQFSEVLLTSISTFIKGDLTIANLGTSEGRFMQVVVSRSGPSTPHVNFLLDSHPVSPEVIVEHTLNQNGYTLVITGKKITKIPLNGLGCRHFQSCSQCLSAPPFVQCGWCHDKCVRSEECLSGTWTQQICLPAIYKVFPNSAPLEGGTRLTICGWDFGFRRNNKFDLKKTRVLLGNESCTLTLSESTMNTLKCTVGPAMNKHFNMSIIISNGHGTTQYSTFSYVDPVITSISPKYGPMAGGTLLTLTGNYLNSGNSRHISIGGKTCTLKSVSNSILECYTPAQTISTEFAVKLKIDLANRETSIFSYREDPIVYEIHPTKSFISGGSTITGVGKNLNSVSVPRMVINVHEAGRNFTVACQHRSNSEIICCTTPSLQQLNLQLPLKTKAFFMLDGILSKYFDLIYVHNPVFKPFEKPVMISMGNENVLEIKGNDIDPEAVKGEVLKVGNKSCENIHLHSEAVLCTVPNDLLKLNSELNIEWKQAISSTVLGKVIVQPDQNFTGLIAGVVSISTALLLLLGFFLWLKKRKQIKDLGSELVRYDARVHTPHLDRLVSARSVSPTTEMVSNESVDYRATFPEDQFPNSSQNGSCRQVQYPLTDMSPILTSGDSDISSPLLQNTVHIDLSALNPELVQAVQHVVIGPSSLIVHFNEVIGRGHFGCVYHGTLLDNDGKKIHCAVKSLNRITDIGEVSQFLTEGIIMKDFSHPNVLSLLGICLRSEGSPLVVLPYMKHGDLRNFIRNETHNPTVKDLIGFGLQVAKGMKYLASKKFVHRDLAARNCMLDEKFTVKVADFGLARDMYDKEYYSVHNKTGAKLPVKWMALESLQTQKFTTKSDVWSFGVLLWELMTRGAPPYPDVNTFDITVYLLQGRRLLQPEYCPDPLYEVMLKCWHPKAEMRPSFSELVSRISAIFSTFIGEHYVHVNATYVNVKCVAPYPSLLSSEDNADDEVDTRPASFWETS
Sequence of KDR (P35968 20-1356): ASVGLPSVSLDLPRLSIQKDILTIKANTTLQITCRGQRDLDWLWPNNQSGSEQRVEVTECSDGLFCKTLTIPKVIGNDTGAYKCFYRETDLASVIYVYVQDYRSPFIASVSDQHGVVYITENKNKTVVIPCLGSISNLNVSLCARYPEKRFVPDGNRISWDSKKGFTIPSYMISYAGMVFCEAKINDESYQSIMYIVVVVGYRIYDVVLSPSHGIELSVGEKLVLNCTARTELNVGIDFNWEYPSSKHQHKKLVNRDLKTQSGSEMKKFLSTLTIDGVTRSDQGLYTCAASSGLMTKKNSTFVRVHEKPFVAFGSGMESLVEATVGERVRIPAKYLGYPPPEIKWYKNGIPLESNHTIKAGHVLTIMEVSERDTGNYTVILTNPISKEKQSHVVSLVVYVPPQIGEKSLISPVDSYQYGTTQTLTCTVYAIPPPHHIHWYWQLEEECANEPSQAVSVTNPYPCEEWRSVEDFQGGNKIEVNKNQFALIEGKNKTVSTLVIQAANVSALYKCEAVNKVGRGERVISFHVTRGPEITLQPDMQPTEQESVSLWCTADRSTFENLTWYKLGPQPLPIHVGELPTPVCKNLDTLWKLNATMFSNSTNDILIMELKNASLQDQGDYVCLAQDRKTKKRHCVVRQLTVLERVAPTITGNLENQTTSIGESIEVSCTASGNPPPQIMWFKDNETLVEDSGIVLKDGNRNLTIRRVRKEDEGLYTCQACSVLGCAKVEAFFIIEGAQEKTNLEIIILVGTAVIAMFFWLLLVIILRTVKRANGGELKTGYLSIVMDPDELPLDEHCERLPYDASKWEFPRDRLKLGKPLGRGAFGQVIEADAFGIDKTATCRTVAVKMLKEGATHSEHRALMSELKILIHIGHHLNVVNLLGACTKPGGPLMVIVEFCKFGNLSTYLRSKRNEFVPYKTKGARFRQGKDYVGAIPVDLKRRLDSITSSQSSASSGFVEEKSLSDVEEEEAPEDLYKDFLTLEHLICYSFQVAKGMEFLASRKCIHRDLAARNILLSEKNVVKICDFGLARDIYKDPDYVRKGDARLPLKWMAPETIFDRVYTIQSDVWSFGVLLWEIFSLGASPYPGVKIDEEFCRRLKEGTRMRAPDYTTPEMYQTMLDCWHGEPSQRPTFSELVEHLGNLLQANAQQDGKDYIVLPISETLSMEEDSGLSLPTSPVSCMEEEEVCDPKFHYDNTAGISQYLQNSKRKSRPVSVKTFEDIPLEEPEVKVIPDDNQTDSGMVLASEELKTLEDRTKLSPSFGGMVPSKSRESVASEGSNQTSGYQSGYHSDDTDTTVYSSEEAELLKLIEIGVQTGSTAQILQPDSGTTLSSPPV

Structure (SMILES)	IC50 (AXL)	IC50 (Met)	IC50 (KDR)
COc1cc2nccc(Oc3ncc(NC(=O)C4(C(=O)Nc5ccc(F)cc5)CC4)cc3F)c2cc1C(=O)O [Compound 15, 4-[3-Fluoro-5-[[1-[(4-fluorophenyl)carbamoyl]cyclopropanecarbonyl]amino]pyridin-2-yl]oxy-7-methoxyquinoline-6-carboxylic acid]	> 300 nM	> 300 nM	> 300 nM
COCc1noc(-c2cc3c(Oc4ncc(NC(=O)C5(C(=O)Nc6ccc(F)cc6)CC5)cc4F)ccnc3cc2OC)n1 [Compound 25, 1-N′-[5-Fluoro-6-[7-methoxy-6-[3-(methoxymethyl)-1,2,4-oxadiazol-5-yl]quinolin-4-yl]oxypyridin-3-yl]-1-N-(4-fluorophenyl)cyclopropane-1,1-dicarboxamide]	> 300 nM	> 300 nM	> 300 nM
COCCc1noc(-c2cc3c(Oc4ncc(NC(=O)C5(C(=O)Nc6ccc(F)cc6)CC5)cc4F)ccnc3cc2OC)n1 [Compound 26, 1-N′-[5-Fluoro-6-[7-methoxy-6-[3-(2-methoxyethyl)-1,2,4-oxadiazol-5-yl]quinolin-4-yl]oxypyridin-3-yl]-1-N-(4-fluorophenyl)cyclopropane-1,1-dicarboxamide]	> 300 nM	> 300 nM	> 300 nM
CCc1noc(-c2cc3c(Oc4ncc(NC(=O)C5(C(=O)Nc6ccc(F)cc6)CC5)cc4F)ccnc3cc2OC)n1 [Compound 27, 1-N′-[6-[6-(3-Ethyl-1,2,4-oxadiazol-5-yl)-7-methoxyquinolin-4-yl]oxy-5-fluoropyridin-3-yl]-1-N-(4-fluorophenyl)cyclopropane-1,1-dicarboxamide]	> 300 nM	> 300 nM	> 300 nM
CNC(=O)c1cc2c(Oc3ncc(NC(=O)C4(C(=O)Nc5ccc(F)cc5)CC4)cc3F)ccnc2cc1OCCO [Compound 44, 1-N′-[5-Fluoro-6-[7-(2-hydroxyethoxy)-6-(methylcarbamoyl)-quinolin-4-yl]oxypyridin-3-yl]-1-N-(4-fluorophenyl)cyclopropane-1,1-dicarboxamide]	10 to 100 nM	10 to 100 nM	> 300 nM
COc1cc2nccc(Oc3cc(C)c(NC(=O)C4(C(=O)Nc5ccc(F)cc5)CC4)cn3)c2nc1OC [Compound 83, 1-N′-[6-[(6,7-Dimethoxy-1,5-naphthyridin-4-yl)oxy]-4-methylpyridin-3-yl]-1-N-(4-fluorophenyl)cyclopropane-1,1-dicarboxamide]	> 300 nM	> 300 nM	> 300 nM
COc1cc2nccc(Oc3ncc(NC(=O)C4(C(=O)Nc5ccc(F)cc5)CC4)cc3C#N)c2nc1OC [Compound 84, 1-N′-[5-Cyano-6-[(6,7-dimethoxy-1,5-naphthyridin-4-yl)oxy]pyridin-3-yl]-1-N-(4-fluorophenyl)cyclopropane-1,1-dicarboxamide]	> 300 nM	> 300 nM	> 300 nM
COc1cc2nccc(Oc3ncc(NC(=O)C4(C(=O)Nc5ccc(F)cc5)CC4)cc3C)c2nc1OC [Compound 85, 1-N′-[6-[(6,7-Dimethoxy-1,5-naphthyridin-4-yl)oxy]-5-methylpyridin-3-yl]-1-N-(4-fluorophenyl)cyclopropane-1,1-dicarboxamide]	> 300 nM	> 300 nM	> 300 nM
COc1cc(Oc2ccnc3cc(OC)c(OC)nc23)ncc1NC(=O)C1(C(=O)Nc2ccc(F)cc2)CC1 [Compound 88, 1-N′-[6-[(6,7-Dimethoxy-1,5-naphthyridin-4-yl)oxy]-4-methoxypyridin-3-yl]-1-N-(4-fluorophenyl)cyclopropane-1,1-dicarboxamide]	100 to 300 nM	> 300 nM	> 300 nM
COc1cc2nccc(Oc3ncc(NC(=O)C4(C(=O)Nc5ccc(F)cc5)CC4)cc3C(F)(F)F)c2nc1OC [Compound 89, 1-N′-[6-[(6,7-Dimethoxy-1,5-naphthyridin-4-yl)oxy]-5-(trifluoromethyl)pyridin-3-yl]-1-N-(4-fluorophenyl)cyclopropane-1,1-dicarboxamide]	> 300 nM	> 300 nM	> 300 nM
COc1cc2nccc(Oc3nc(C)c(NC(=O)C4(C(=O)Nc5ccc(F)cc5)CC4)cc3Br)c2nc1OC [Compound 90, 1-N′-[5-Bromo-6-[(6,7-dimethoxy-1,5-naphthyridin-4-yl)oxy]-2-methylpyridin-3-yl]-1-N-(4-fluorophenyl)cyclopropane-1,1-dicarboxamide]	> 300 nM	> 300 nM	> 300 nM
COc1cc2nccc(Oc3ccc(NC(=O)C4(C(=O)Nc5ccc(F)cc5)CC4)c(C(N)=O)n3)c2nc1OC [Compound 91, 1-N′-[2-Carbamoyl-6-[(6,7-dimethoxy-1,5-naphthyridin-4-yl)oxy]pyridin-3-yl]-1-N-(4-fluorophenyl)cyclopropane-1,1-dicarboxamide]	> 300 nM	> 300 nM	> 300 nM
COc1cc2nccc(Oc3ncc(NC(=O)C4(C(=O)Nc5ccc(F)cc5)CC4)cc3OC)c2nc1OC [Compound 92, 1-N′-[6-[(6,7-Dimethoxy-1,5-naphthyridin-4-yl)oxy]-5-methoxypyridin-3-yl]-1-N-(4-fluorophenyl)cyclopropane-1,1-dicarboxamide]	> 300 nM	> 300 nM	> 300 nM
O=C(Nc1ccc(F)cc1)C1(C(=O)Nc2ccc(Oc3ccnc4cc5c(nc34)OCCO5)nc2)CC1 [Compound 103, 1-N′-[6-(2,3-Dihydro-[1,4]dioxino[2,3-b][1,5]naphthyridin-6-yloxy)pyridin-3-yl]-1-N-(4-fluorophenyl)cyclopropane-1,1-dicarboxamide]	> 300 nM	> 300 nM	> 300 nM
O=C(Nc1ccc(F)cc1)C1(C(=O)Nc2cnc(Oc3ccnc4cc5c(nc34)OCCO5)c(Cl)c2)CC1 [Compound 104, 1-N′-[5-Chloro-6-(2,3-dihydro-[1,4]dioxino[2,3-b][1,5]naphthyridin-6-yloxy)pyridin-3-yl]-1-N-(4-fluorophenyl)cyclopropane-1,1-dicarboxamide]	> 300 nM	> 300 nM	> 300 nM
O=C(Nc1ccc(F)cc1)C1(C(=O)Nc2cnc(Oc3ccnc4cc5c(nc34)OCCO5)c(F)c2)CC1 [Compound 105, 1-N′-[6-(2,3-Dihydro-[1,4]dioxino[2,3-b][1,5]naphthyridin-6-yloxy)-5-fluoropyridin-3-yl]-1-N-(4-fluorophenyl)cyclopropane-1,1-dicarboxamide]	> 300 nM	> 300 nM	> 300 nM
